Measurements published in patent US20120015886A1, “METHOD FOR PREPARING RECOMBINANT PEPTIDE FROM SPIDER VENOM AND METHOD FOR RELIEVING PAIN” (priority 2005, published 2012).
Where no end group is shown, it is not given here.

Tests used:
carrageenan-treated mice [1] = assay: Randall-Selitto test, mechanical hyperalgesia heightened by carrageenan; type: in vivo
Description: In order to probe mechanical hyperalgesia in mice, the present inventors conducted the Randall-Selitto test, in which severe mechanical stress is applied to inflict pain. In detail, force is applied to a sharp-ended rod in touch with a hind paw of a mouse. As a measure of pain sensitivity, the weight of the rod at the pain threshold is recorded.
(§1) A cone-shaped rod was placed at one of the hind paws of mice treated with GsMTx4 and force was applied. […] A pain response was characterized as either raising the hind paw, rolling up the tail, or making a shrill sound.
(§2) Two groups of 8 mice each were injected with either physiological saline solution or the pain inducer carrageenan (2% solution, 50 μL, intraplantar) at their hind paws. After the first injection, either GsMTx4 (40 μg/150 g body weight) or for the positive control group, morphine (1.5 mg/150 g) was intraperitoneally injected to these mice. The Randall-Selitto test was carried out 4 hours later. Mechanical stimuli were applied in an area in the paw between the thumb and index finger. Threshold weight data were represented as percentage values against the threshold weight for mice treated saline solution (negative control).

[2] = system: mice that did not receive carrageenan; assay: Randall-Selitto test, mechanical high-pressure stimuli, no pain inducer; type: in vivo; conditions: mice without carrageenan; compared to intraplantar saline and intraperitoneal morphine groups
Description: as §1, §2

carrageenan-treated mice [3] = assay: von Frey test, mechanical allodynia heightened by carrageenan; type: in vivo
Source text: Mechanical stimuli were applied in an area in the paw between the thumb and index finger.

[4] = system: mice that did not receive carrageenan; assay: von Frey test, mechanical low-pressure stimuli, no pain inducer; type: in vivo; conditions: mice without carrageenan; compared to intraplantar saline and intraperitoneal morphine groups
Description: The present inventors conducted the von Frey test in order to see whether GsMTx4 of this invention has an analgesic effect against rubbing or other weak mechanical stimuli inside a living body. When a pain inducer is administered only to one of the hind paws of a mouse, the affected paw becomes sensitive and feels pain from even small mechanical stimuli. The von Frey test involves measuring the weight difference at the pain threshold between the two hind paws as one varies the width of the von Frey hair involved in giving the stimuli (http://www.2biol.com/2biol analgesia.htm; Pitcher, G. M. et al., Journal of Neuroscience Methods 87(2):185˜193, 1999).
Two groups of 8 mice each received a 50-μL intraplantar injection of either physiological saline solution or 2% carrageenan at only one of their hind paws. After the first injection, either GsMTx4 (40 μg/150 g body weight) or for the positive control group, morphine (10 mg/150 g) was intraperitoneally injected to these mice. These mice were rubbed with von Frey hairs a half to 4 hours later.
Mechanical stimuli were applied in an area in the paw between the thumb and index finger. Threshold weight data were represented as percentages against the threshold weight for mice treated saline solution (negative control).

carrageenan-treated mice [5] = assay: Weight-bearing test; type: in vivo
Description: In order to monitor behavioral changes brought by complex mechanical stimuli, the present inventors conducted the weight-bearing test, in which complex mechanical pain is assessed as the stimulus is varied. In detail, one the hind limbs of a mouse was injected with pain inducers such as carrageenan and formalin to incur pain. In such a case, the mouse puts less weight in the injected hind limb, but puts more weight than usual in the other, normal hind limb and this difference in weight is recorded as a measure of pain.
More specifically, the principles behind this test are as follows. When a mouse receives an injection of pain inducers in only one of the hind paws, it puts more weight than usual in the other hind paw. This difference in the weight balance serves as a measure of the mouse's pain. In the present example, such weight difference per unit body weight of the mouse was reported for comparison.
Two groups of 8 mice each received an intraplantar injection of either 2% carrageenan (50 μL) or for the negative control group, physiological saline solution (100 μL) at only one of their hind paws. To the carrageenan-treated mice, either GsMTx4 (40 μg/150 g body weight) or for the positive control group, morphine (10 mg/150 g) was intraperitoneally and their weight balances were monitored 1 to 6 hours later.

[6] = system: mice with neuropathic pains; assay: von Frey test under a neuropathic pain model; type: in vivo; conditions: tibial and sural nerves cut; 50 μg/200 g body weight; 4 hours after injection; versus saline control
Source text: Neuropathic pain was induced to mice according to the method reported by Lee and others (Lee, B. et al., Neuroreport 11:657˜661, 2000). Mice were put under anesthesia and their skin was excised in the thighs to expose the tibial, sural and common peroneal nerves. Out of these, the tibial and sural nerves were bound together and cut off. Mice were then allowed to recuperate for 6 days after the operation and the monitoring for the presence of neuropathic pain began 1 week after the operation. The analgesic effect of GsMTx4 on those mice suffering from neuropathic pain was tested by the von Frey test as in Example 9.
Mice with neuropathic pains were divided into two groups of 9. To the first group, GsMTx (50 μg/200 g body weight) was injected and to the second group, physiological saline solution for control. 4 hours after the injection of GsMTx4, mechanical stimuli were applied to these mice with von Frey filaments. The width of the von Frey filament that evoked a nociceptic (flexor) reflex was recorded before and after the surgery, and the data was expressed as the percentage of the latter width in relation to the former.

mice = assay: Tail flick test, temperature stimuli; type: in vivo; conditions: no pain inducer; GsMTx4 40 μg/150 g intraperitoneal; compared to morphine 10 mg/150 g; 30 to 4 hours later
Source text: The present inventors looked into GsMTx4 for its possible analgesic activity on pain from temperature stimuli. Mice were irradiated with infrared in their tails and monitored for their endurance against heat (tail flick test). The analgesic effect of GsMTx4 was examined by comparing data from a group of mice suffering from induced pain with those from a non-induced group (Pitcher G. M. et al., Journal of Neuroscience Methods, 87(2):185˜193, 1999).
Three groups of 8 mice each respectively received an intraperitoneal injection of either physiological saline solution (100 μL) as the negative control, or morphine (10 mg/150 g body weight) as the positive control, or GsMTx4 (40 μg/150 g). They were then subject to the tail flick test 30 to 4 hours later.

cell swelling = conditions: Sachs et al., J. Gen. Physiol. 2000; cited from earlier work
[7] = system: stretch-activated channels (SACs); conditions: administered to the hearts of rabbits after atrial fibrillation was induced with high level stress; cited from earlier work
[8] = carrageenan-treated mice, GsMTx4 40 μg/150 g intraperitoneal

Compound	pain sensitivity threshold (carrageenan-treated mice [1]; 2% carrageenan 50 μL intraplantar, intraperitoneal GsMTx4 40 μg/150 g body weight or morphine 1.5 mg/150 g)	time after injection at which the analgesic effect occurred (carrageenan-treated mice [1]; [8]) [min]	time the analgesic effect lasted (carrageenan-treated mice [1]; [8])	analgesic effect against mechanical high pressure [2]	hypersensitivity (pain threshold for hair force) (carrageenan-treated mice [3]; 2% carrageenan 50 μL intraplantar, intraperitoneal GsMTx4 40 μg/150 g or morphine 10 mg/150 g, a half to 4 hours later)	analgesic effect against mechanical low pressure [4]	weight difference between hind limbs (carrageenan-treated mice [5]; 2% carrageenan 50 μL intraplantar, GsMTx4 40 μg/150 g or morphine 10 mg/150 g intraperitoneally, 1 to 6 hours later)	reflex threshold against mechanical stimuli (von Frey filaments) [6]	analgesic activity against temperature stimuli (mice)	effect on cell swelling associated with congestive heart failure (cell swelling)	effect on atrial fibrillation [7]	pain sensitivity threshold (carrageenan-treated mice [1]; mouse, in vivo, ip)	hypersensitivity (pain threshold for hair force) (carrageenan-treated mice [3]; mouse, in vivo, ip)	weight difference between hind limbs (carrageenan-treated mice [5]; mouse, in vivo, ip)
GsMTx4: Spider toxin peptide of 34 amino acids (SEQ. ID NO 1), 3 disulfide bonds, mechanosensitive ion channel inhibitor; produced recombinantly in Pichia pastoris (GCLEFWWKCNPNDDKCCRPKLKCSKLFKLCNFSF; disulfide (positions not given here); not fully specified (bridges); ends not checked; listed as Grammostola spatulata)	increased back substantially	30	approximately 4 hours	evident	reduce hypersensitivity	observed, albeit weakly	reverted back to a low value	elevation of the reflex threshold	either negligible or no analgesic activity	prevent cell swelling	relieve symptoms of atrial fibrillation			
CN1CC[C@]23c4c5ccc(O)c4O[C@H]2[C@@H](O)C=C[C@H]3[C@H]1C5 [morphine, reference compound]												increased back substantially	reduce hypersensitivity	reverted back to a low value
